Test results reported in publication PMC3493622 (Organic & biomolecular chemistry, 2012).
Read-outs that look alike come from different tables or passages of the source.

Experiments:
[1] = SRB cytotoxicity / cell survival under nitrite assay conditions; type: cell-based, murine; conditions: mouse, RAW 264.7 cells
RAW 264.7 cells = assay: as above; type: cell-based, murine; conditions: for Nitrite assay % survival: 50 μM, cell survival in comparison with vehicle-treated controls, SRB
[2] = test system: NFκB (luciferase reporter in human embryonic kidney cells 293); assay: NFκB luciferase assay; type: cell-based; conditions: for NFκB assay % inhibition: screening concentration 50 μM, TNFα; for NFκB inhibitory activity (in words): at 50 μM
[3] = test system: NO production (iNOS) in LPS-stimulated RAW 264.7 cells; type: cell-based, murine; conditions: for Nitrite assay % inhibition: screening concentration 50 μM, LPS 1 μg/mL, 20 h; for nitrite inhibitory activity (in words): tested up to 50 μM
HEK293 = assay: Cell survival in the NFκB assay; type: cell-based, Human; conditions: for NFκB assay % survival: 50 μM, cell survival in comparison with vehicle-treated controls

`Nc1ccccc1C#Cc1cc(F)cc(F)c1` [10ae′, 2-((3,5-Difluorophenyl)ethynyl)aniline] gave an IC50 at 20 h [1] of 42.9 ± 5.1 µM.
In the case of `c1ccc(-c2cc3ccccc3[nH]2)cc1` [Compound 1, 2-phenylindole], the “Nitrite assay % survival” value (RAW 264.7 cells) is reported as 87.3±3.9%, the “NFκB assay % inhibition” value ([2]; 6 h, 50 µM) is reported as 72.3±5% and the “Nitrite assay % inhibition” value ([3]; 50 µM) is reported as 60.4±2.2%. For the same compound, the “NFκB assay % survival” value (HEK293) was 113.1±2.8%.
For `C#CCn1c(-c2ccccc2)cc2ccccc21` [Compound 2d, 2-Phenyl-N-propargylindole], the IC50 at 20 h [1] was 46.8 ± 1.9 µM.
Compound `CC(C)(C)OC(=O)n1c(-c2ccccc2)cc2ccccc21` [Compound 2f, N-Boc-2-phenylindole] has an IC50 at 20 h [1] of 38.2 ± 5 µM.
In the case of `c1ccc(C2Cc3ccccc3N2)cc1` (stereo not drawn) [Compound 3, 2-phenylindoline], the “nitrite inhibitory activity (in words)” value [3] is reported as “essentially inactive”.
With `CON=Cc1c(-c2ccccc2)[nH]c2ccccc12` [Compound 6a, 2-Phenyl-1H-indole-3-carboxaldehyde O-methyl oxime] the IC50 at 20 h [1] was 48 ± 5.1 µM.
With `c1ccc(-c2cc3ccccc3[nH]2)cc1` [Compound 10aa, 2-phenyl-1H-indole] the “Nitrite assay % survival” value (RAW 264.7 cells) was 66.7±4.0% and the “NFκB assay % survival” value (HEK293) was 79.8±5.9%.
With `Cc1ccccc1-c1cc2ccccc2[nH]1` [Compound 10ab, 2-o-Tolyl-1H-indole] the IC50 at 20 h [1] was 32.9 ± 2.5 µM, the “cell survival at the IC80 concentration” value (RAW 264.7 cells; at 9.3 μM (IC80 of nitrite inhibition)) was 94.5% and the “NFκB inhibitory activity (in words)” value [2] was “inactive”. For the same compound, the IC80 ([3]; Mus musculus, RAW264.7, read-out: IC80 concentration (nitrite inhibition)) was 9.3 µM.
In the case of `Cc1ccc(-c2cc3ccccc3[nH]2)cc1` [Compound 10ac, 2-p-Tolyl-1H-indole], the “nitrite inhibitory activity (in words)” value [3] is reported as “essentially inactive”.
In the case of `COc1cc(OC)cc(-c2cc3ccccc3[nH]2)c1` [Compound 10ag, 2-(3,5-Dimethoxyphenyl)-1H-indole], the “NFκB inhibitory activity (in words)” value [2] is reported as “inactive”.
With `Cc1ccccc1-c1cc2cc([N+](=O)[O-])ccc2[nH]1` [Compound 10bb, 5-Nitro-2-o-toyl-1H-indole] the “Nitrite assay % survival” value (RAW 264.7 cells) was 89.2±9.5%, the “NFκB assay % inhibition” value ([2]; 6 h) was 60.6±3.2% and the “Nitrite assay % inhibition” value [3] was 45.9±3.0%. The “NFκB assay % survival” value (HEK293) was 119.2±8.6%.
In the case of `N#Cc1ccc2cc(-c3ccccc3)[nH]c2c1` [Compound 10ea, 6-Carbonitrile-2-phenyl-1H-indole], the “Nitrite assay % survival” value (RAW 264.7 cells) is reported as 78.1±3.8%, the “NFκB assay % inhibition” value ([2]; 6 h) is reported as 50.6±3.8% and the “Nitrite assay % inhibition” value [3] is reported as 45.6±2.5%. The “NFκB assay % survival” value (HEK293) was 72.4±6.2%.
With `c1ccc(-c2nc3ccccc3[nH]2)cc1` [Compound 11, 2-phenylbenzimidazole, reference compound] the viability at 50 µM (RAW 264.7 cells; Mus musculus, RAW264.7, 20 h, read-out: Nitrite assay % survival) was 97.7 ± 5.6%, the inhibition at 50 µM ([2]; Homo sapiens, 6 h, read-out: NFκB assay % inhibition) was 73.6 ± 3.1% and the IC50 ([2]; Homo sapiens, 6 h, read-out: NFκB assay IC50) was 11.2 ± 0.3 µM. It also gave an inhibition at 50 µM ([3]; Mus musculus, RAW264.7, 20 h, read-out: Nitrite assay % inhibition) of 13.8 ± 6.4% and a viability at 50 µM (HEK293; Homo sapiens, HEK293, read-out: NFκB assay % survival) of 86.2 ± 18%.
